Results reported in US8906904B2, “Alkoxy pyrazoles as soluble guanylate cyclase activators” (Boehringer Ingelheim International GmbH, priority 2012, dated 2014).

Experiment: human liver microsome (HLM) metabolic stability assay
Format: in vitro ADME
Details: human liver microsomes; % hepatic blood flow calculated from t1/2
Experimental: The 5 time point, high-throughput human liver microsome (HLM) metabolic stability assay is designed to determine in vitro compound metabolism. Compounds are incubated with HLMs at a concentration of 1 uM, at 37° C., for a total of 60 min. The percent of compound remaining at 5, 15, 30, and 60 min is used to calculate the t½ (min), CLint (mL/min/kg), CLh (mL/min/kg), and % Qh. The assay is based on a 96-well format and can accommodate up to 92 compounds per plate (n=1).
Using the 96-well multi-channel head, the Biomek FX, equipped with a Peltier heating block/shaker, is programmed to accomplish the following steps: • 1. Pipette 175 uL of 1.15 mg/mL microsomes into each of the 96 conical inserts (Analytical Sales and Products, catalog number 96PL05) that fit into the plate of the Peltier heating block/shaker (the incubation plate) • 2. Add 5 uL of compounds from the assay plate to the microsomes and shake the mixture at 600 rpm at 42.1° C. for 10 min (a setting of 42.1° C. on the Peltier is required for the samples to incubate at 37° C.) • 3. After 10 min, prompt the user to add the NADPH plate to the deck and add 20 uL from the NADPH plate to the incubation plate to start the reaction • 4. Add 215 uL of 100%, cold acetonitrile containing an internal standard(s) to a 0 minute, 5 minute, 15 minute, 30 minute, and 60 minute “quench” plate • 5. At 0 min, 5 min, 15 min, 30 min, and 60 min into the incubation, aspirate 12 uL from the incubation mixture and add it to the quench solution to stop the reaction • 6. Add 185 uL HPLC grade water to each well of the 0, 5, 15, 30 and 60 minute quench plates to dilute compounds to the appropriate concentration for the mass spectrometer
After all time points are collected, the quench plates are sealed with 96-well pierceable plate mats or heat sealing foil and centrifuged at 3000 rpm for 15 min to pellet the microsomes.
The plates are analyzed using LC/MS/MS with electron spray ionization (ESI) and the previously determined MRM transitions. The LC method includes the following parameters:
Using an Excel template in Activitybase, the peak areas corresponding to 5, 15, 30 and 60 min are compared to the peak area at 0 min to calculate the percent of remaining compound using the following equation: Percent compound remaining=(AUC at Time t min/AUC at Time 0 min)×100 where t=0, 5, 15, 30 or 60 min.
Time (min) is plotted against the natural logarithm (Ln) of the percent compound remaining to determine the slope. The slope is used to calculate t½ (min) using the equation, t½=0.693/slope.
Preferred compounds have % Qh values of less than 24.

SMILES | HLM (% Qh)
COc1c(C(=O)O)cnn1-c1cccc(-c2cccc(C)c2OCc2cc(C)c3c(c2C)CN(C2CCOCC2)C3)n1 [Compound 145] | <24
CCOc1c(C(=O)O)cnn1-c1cccc(-c2cccc(C)c2OCc2ccc3c(c2C)CCN(CC2CCCOC2)C3)n1 (stereo not drawn) [Compound 146] | <24
CCOc1c(C(=O)O)cnn1-c1cccc(-c2cccc(C)c2OCc2ccc3c(c2C)CCN(C(=O)C2CCOCC2)C3)n1 [Compound 147, 5-Ethoxy-1-(6-{3-methyl-2-[5-methyl-2-(tetrahydro-pyran-4-carbonyl)-1,2,3,4-tetrahydro-isoquinolin-6-ylmethoxy]-phenyl}-pyridin-2-yl)-1H-pyrazole-4-carboxylic acid] | <24
COCCOc1c(C(=O)O)cnn1-c1cccc(-c2cccc(C)c2OCc2ccc3c(c2C)CCN(C2CCCOC2)C3)n1 (stereo not drawn) [Compound 149] | <24
COCCOc1c(C(=O)O)cnn1-c1cccc(-c2cccc(C)c2OCc2ccc3c(c2C)CCN(C2CCOC2)C3)n1 (stereo not drawn) [Compound 150] | <24
COCCOc1c(C(=O)O)cnn1-c1cccc(-c2cccc(C)c2OCc2ccc3c(c2C)CCN(C2CCOCC2)C3)n1 [Compound 151] | <24
CCOc1c(C(=O)O)cnn1-c1cccc(-c2cccc(C)c2OCc2ccc3c(c2C)CCN(C[C@@H]2CCCOC2)C3)n1 [Compound 152] | <24
CCOc1c(C(=O)O)cnn1-c1cccc(-c2cccc(C)c2OCc2ccc3c(c2C)CCN(C[C@H]2CCCOC2)C3)n1 [Compound 153] | <24
CCOc1c(C(=O)O)cnn1-c1cccc(-c2cccc(C)c2OCc2ccc3c(c2CC)CCN(C2CCOCC2)C3)n1 [Compound 154] | <24
CCOc1c(C(=O)O)cnn1-c1cccc(-c2cccc(C)c2OCc2ccc3c(c2C)CCN(C2COC(C)(C)OC2)C3)n1 [Compound 155] | <24
CCOc1c(C(=O)O)cnn1-c1cccc(-c2cccc(C)c2OCc2cc3c(c(C(F)(F)F)c2)CN(C2CCOCC2)CC3)n1 [Compound 157] | 31
COc1c(C(=O)O)cnn1-c1cccc(-c2cccc(C)c2OCc2cc3c(c(C(F)(F)F)c2)CN(C2CCOCC2)CC3)n1 [Compound 158] | <24
CCOc1c(C(=O)O)cnn1-c1cccc(-c2cccc(C)c2OCc2ccc3c(c2F)CCN(C2CCOCC2)C3)n1 [Compound 159] | <24
COc1c(C(=O)O)cnn1-c1cccc(-c2cccc(C)c2OCc2ccc3c(c2C)CCN(S(C)(=O)=O)C3)n1 [Compound 160] | 44
Cc1cc(COc2c(C)cccc2-c2cccc(-n3ncc(C(=O)O)c3OC(C)C)n2)cc2c1CN(C1CCOCC1)CC2 [Compound 161] | <24
CCOc1c(C(=O)O)cnn1-c1cccc(-c2cccc(C)c2OCc2ccc3c(c2C)CCN(C2CCOCC2)CC3)n1 [Compound 162] | 26
CCOc1c(C(=O)O)cnn1-c1cccc(-c2cccc(C)c2OCc2ccc3c(c2C)CCN(CC2CCOC(C)(C)C2)C3)n1 (stereo not drawn) [Compound 163] | <24

SMILES | HLM (% Qh)
CCOc1c(C(=O)O)cnn1-c1cccc(-c2cccc(C)c2OCc2ccc3c(c2C)CCN(C2COC2)C3)n1 [Compound 164] | <24
CCOc1c(C(=O)O)cnn1-c1cccc(-c2cccc(C)c2OCc2ccc3c(c2C(F)(F)F)CCN(C2CCOCC2)C3)n1 [Compound 165] | <24
COc1c(C(=O)O)cnn1-c1cccc(-c2cccc(C)c2OCc2ccc3c(c2C(F)(F)F)CCN(C2CCOCC2)C3)n1 [Compound 166] | 27
COc1c(C(=O)O)cnn1-c1cccc(-c2cccc(C)c2OCc2ccc3c(c2C)CCN(C2CCOCC2)C3=O)n1 [Compound 167, 5-Methoxy-1-(6-{3-methyl-2-[5-methyl-1-oxo-2-(tetrahydro-pyran-4-yl)-1,2,3,4-tetrahydro-isoquinolin-6-ylmethoxy]-phenyl}-pyridin-2-yl)-1H-pyrazole-4-carboxylic acid] | <24
CCOc1c(C(=O)O)cnn1-c1cccc(-c2cccc(C)c2OCc2ccc3c(c2C)CCN(CCOCCO)C3)n1 [Compound 168] | <24
CCOc1c(C(=O)O)cnn1-c1cccc(-c2cccc(C)c2OCc2cc(C)c3c(c2)CCN(C2CCOCC2)C3)n1 [Compound 169] | <24
CCOc1c(C(=O)O)cnn1-c1cccc(-c2cccc(C)c2OCc2ccc3c(c2C)CCN(C[C@H]2COCCO2)C3)n1 [Compound 170] | <24
COc1c(C(=O)O)cnn1-c1cccc(-c2cccc(C)c2OCc2cc(C)c3c(c2)CCN(C2CCOCC2)C3)n1 [Compound 171] | <24
CCOc1c(C(=O)O)cnn1-c1cccc(-c2cccc(C)c2OCc2ccc3c(c2C)CCN(CC2CCOCC2)C3)n1 [Compound 172] | <24
CCOc1c(C(=O)O)cnn1-c1cccc(-c2cccc(C)c2OCc2cc(C)c3c(c2)CCN(C2CCCOC2)C3)n1 (stereo not drawn) [Compound 173] | <24
CCOc1c(C(=O)O)cnn1-c1cccc(-c2cccc(C)c2OCc2cc(C)c3c(c2)CCN(C2COC2)C3)n1 [Compound 174] | <24
CCOc1c(C(=O)O)cnn1-c1cccc(-c2cccc(C)c2OCc2ccc3c(c2C)CCN(C2COC2)CC3)n1 [Compound 175] | 31
COc1c(C(=O)O)cnn1-c1cccc(-c2cccc(C)c2OCc2ccc3c(c2C)CCN(C2COC2)CC3)n1 [Compound 176] | 28
COc1c(C(=O)O)cnn1-c1cccc(-c2cccc(C)c2OCc2ccc3c(c2F)CCN(C2COC2)C3)n1 [Compound 177] | <24
COc1c(C(=O)O)cnn1-c1cccc(-c2cccc(C)c2OCc2cc(C)c3c(c2C)CCN(C2COC2)C3)n1 [Compound 178] | <24
CCOc1c(C(=O)O)cnn1-c1cccc(-c2cccc(C)c2OCc2ccc3c(c2C)CCN(C[C@H]2COC(C)(C)O2)C3)n1 [Compound 179] | <24
